Results reported in ChEMBL document CHEMBL1201862, “PubChem BioAssay data set” (2004).
The source made the active and inactive calls.

What was measured:
[1] = molecular target: Lysosomal acid glucosylceramidase (Homo sapiens, UniProt P04062); experiment: Dose response cell-based high throughput screening assay to identify enhancers of beta-glucosidase activity. [Related pubchem assays: 784 ]; assay type: functional
Cytochrome P450 3A4 = Cytochrome P450 3A4 (Homo sapiens, UniProt P08684); conditions: Potency;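 note: confirmatory qHTS run detecting inhibitors and substrates of CYP3A4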
Cytochrome P450 2C9 = Cytochrome P450 2C9 (Homo sapiens, UniProt P11712); conditions: Potency
[2] = molecular target: Melanin-concentrating hormone receptor 1 (Homo sapiens, UniProt Q99705); experiment: Late-stage fluorescence-based counterscreen for antagonists of the G-protein coupled receptor 7 (GPR7): cell-based dose response assay to identify antagonists of the melanin-concentrating hormone receptor 1 (MCHR1). [Related pubchem assays (depositor defined):AID1861, AID1880, AID1952, AID2148, AID2251, AID2257, AID485339]; assay type: functional;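 note: stimulated with 30 nM MCH peptide agonist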
HEK293 = experiment: Fluorescence-based counterscreen for potentiators or agonists of NPY-Y2: cell-based high-throughput dose response assay to identify inhibitors of cyclic nucleotide gated ion channel (CNGC) activity. In this assay, the parental HEK293 cell line transfected with a cyclic-nucleotide gated ion channel (CNGC)-based cAMP sensor is used to measure inhibition of isoproterenol-induced CNGC activity by test compound.; assay type: functional; conditions: Homo sapiens;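 note: stimulus is 1 µM isoproterenol at EC100 plus PDE inhibitor Ro 20-1724 at 25 µM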
[3] = inhibitors of HIV Env-driven cell fusion, dose response, cherry-pick (AID 652057); assay type: functional, cell-based
[4] = molecular target: Eukaryotic translation initiation factor 4E (Mus musculus, UniProt P63073); experiment: eIF4E–eIF4G protein interaction inhibitors, dose response, biochemical, TR-FRET (AID 855); assay type: functional;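 note: potency for disrupting eIF4E binding to eIF4GI seen as loss of FRET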
[5] = molecular target: Neuropeptide Y receptor type 2 (Homo sapiens, UniProt P49146); experiment: Fluorescence-based cell-based high-throughput dose response assay for agonists of NPY-Y2. [Related pubchem assays: 1703 (Screening assay (CNGC inhibitors).), 1359 (Screening assay (NPY-Y2 potentiators or agonists).), 1304 (Screening assay (NPY-Y1 potentiators or agonists).), 1710 (Screening assay (NPY-Y2 agonists).), 1791 (Summary AID.)]; assay type: functional
[6] = inhibitors of clade B AD8 Env fusion, dose response, cell-based, cherry-pick (AID 652062); assay type: functional;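 note: luciferase signal from cell-cell fusion driven by HIV-1 clade B AD8 Env; potency is for inhibitors of fusion seen as a drop in luminescence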
INS1 = experiment: beta cell apoptosis inhibitors, cytokine rescue, dose response, luminescence, retest (AID 449756); assay type: functional, cell-based; conditions: Rattus norvegicus;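 note: cell death triggered by IL-1 beta plus TNF-alpha plus IFN-gamma mixture; protective hits raise ATP signal compared with cytokine alone wells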
[7] = molecular target: Neuropeptide Y receptor type 1 (Homo sapiens, UniProt P25929); experiment: Fluorescence-based counterscreen for agonists of NPY-Y2: cell-based high-throughput dose response assay for agonists of NPY-Y1.; assay type: functional
[8] = off-target signal loss in HeLa-CEM21 co-culture – HeLa F-luc CTL cells, cherry-picked, counter-screen for HIV-1 Env fusion inhibitor project, dose response (AID 652040); assay type: functional, cell-based;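 note: potency for signal decrease marking cytotoxic or nonspecific inhibition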

Sequence of Cytochrome P450 2C9 (P11712 whole entry): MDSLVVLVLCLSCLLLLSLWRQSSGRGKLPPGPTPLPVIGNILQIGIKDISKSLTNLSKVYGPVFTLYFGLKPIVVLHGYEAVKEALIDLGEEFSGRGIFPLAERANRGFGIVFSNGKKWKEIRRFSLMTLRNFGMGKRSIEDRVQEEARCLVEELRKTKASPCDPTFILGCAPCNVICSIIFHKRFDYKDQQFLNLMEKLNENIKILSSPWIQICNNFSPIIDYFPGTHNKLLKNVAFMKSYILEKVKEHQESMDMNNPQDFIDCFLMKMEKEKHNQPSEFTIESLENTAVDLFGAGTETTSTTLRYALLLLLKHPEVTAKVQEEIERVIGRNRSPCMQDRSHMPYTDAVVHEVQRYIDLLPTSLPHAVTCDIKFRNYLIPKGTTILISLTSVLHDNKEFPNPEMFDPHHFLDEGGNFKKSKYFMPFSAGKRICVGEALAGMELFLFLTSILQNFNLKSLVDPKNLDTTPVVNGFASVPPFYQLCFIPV
Sequence of Melanin-concentrating hormone receptor 1 (Q99705 whole entry): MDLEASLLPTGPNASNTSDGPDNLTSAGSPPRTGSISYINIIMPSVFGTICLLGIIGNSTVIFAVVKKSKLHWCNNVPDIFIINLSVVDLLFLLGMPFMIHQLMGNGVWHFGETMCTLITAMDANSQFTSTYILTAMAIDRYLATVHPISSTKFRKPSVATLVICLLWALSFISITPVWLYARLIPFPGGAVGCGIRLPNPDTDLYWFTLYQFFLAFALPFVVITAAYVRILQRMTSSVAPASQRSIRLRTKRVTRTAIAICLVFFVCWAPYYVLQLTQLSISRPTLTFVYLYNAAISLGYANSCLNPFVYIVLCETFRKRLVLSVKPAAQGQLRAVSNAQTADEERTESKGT
Sequence of Lysosomal acid glucosylceramidase (P04062 whole entry): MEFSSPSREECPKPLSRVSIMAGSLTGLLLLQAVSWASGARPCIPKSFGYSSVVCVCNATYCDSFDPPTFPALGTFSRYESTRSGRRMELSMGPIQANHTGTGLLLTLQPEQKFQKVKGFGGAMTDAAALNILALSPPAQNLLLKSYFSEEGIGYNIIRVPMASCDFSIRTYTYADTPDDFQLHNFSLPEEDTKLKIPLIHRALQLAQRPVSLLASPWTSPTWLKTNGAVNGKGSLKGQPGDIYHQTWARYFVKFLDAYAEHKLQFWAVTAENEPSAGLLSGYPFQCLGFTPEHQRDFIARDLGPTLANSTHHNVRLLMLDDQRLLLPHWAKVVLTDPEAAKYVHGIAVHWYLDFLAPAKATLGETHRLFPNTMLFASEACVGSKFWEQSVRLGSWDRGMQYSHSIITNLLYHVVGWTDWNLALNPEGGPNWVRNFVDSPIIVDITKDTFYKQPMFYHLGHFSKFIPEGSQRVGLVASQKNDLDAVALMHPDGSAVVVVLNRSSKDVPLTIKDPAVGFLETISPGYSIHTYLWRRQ
Sequence of Neuropeptide Y receptor type 1 (P25929 whole entry, the tested form may be a part): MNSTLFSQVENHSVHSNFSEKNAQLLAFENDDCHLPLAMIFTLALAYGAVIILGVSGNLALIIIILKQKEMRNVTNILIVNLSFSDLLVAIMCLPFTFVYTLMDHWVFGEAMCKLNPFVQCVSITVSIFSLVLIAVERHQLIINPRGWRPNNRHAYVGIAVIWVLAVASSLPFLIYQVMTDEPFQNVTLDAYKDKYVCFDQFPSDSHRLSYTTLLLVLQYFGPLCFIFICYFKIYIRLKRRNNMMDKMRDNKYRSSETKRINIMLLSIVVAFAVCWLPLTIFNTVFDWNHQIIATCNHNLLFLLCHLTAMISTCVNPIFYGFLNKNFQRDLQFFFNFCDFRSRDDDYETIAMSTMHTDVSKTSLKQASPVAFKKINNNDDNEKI
Sequence of Neuropeptide Y receptor type 2 (P49146 whole entry, the tested form may be a part): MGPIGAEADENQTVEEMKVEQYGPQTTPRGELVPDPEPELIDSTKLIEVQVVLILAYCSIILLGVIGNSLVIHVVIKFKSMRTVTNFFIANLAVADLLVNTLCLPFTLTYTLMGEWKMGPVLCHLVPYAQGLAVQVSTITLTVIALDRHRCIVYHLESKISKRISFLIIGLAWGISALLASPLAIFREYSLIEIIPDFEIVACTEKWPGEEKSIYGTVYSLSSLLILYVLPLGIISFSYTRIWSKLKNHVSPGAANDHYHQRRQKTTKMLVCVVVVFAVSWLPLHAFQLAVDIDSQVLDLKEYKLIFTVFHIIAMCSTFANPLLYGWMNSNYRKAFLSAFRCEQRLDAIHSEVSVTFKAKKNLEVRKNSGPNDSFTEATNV
Sequence of Eukaryotic translation initiation factor 4E (P63073 whole entry): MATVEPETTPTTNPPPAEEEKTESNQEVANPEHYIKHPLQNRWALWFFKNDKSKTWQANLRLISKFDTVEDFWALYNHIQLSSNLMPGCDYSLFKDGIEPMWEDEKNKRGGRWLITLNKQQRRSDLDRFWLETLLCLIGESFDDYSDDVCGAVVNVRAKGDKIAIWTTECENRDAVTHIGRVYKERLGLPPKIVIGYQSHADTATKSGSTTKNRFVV
Sequence of Cytochrome P450 3A4 (P08684 whole entry): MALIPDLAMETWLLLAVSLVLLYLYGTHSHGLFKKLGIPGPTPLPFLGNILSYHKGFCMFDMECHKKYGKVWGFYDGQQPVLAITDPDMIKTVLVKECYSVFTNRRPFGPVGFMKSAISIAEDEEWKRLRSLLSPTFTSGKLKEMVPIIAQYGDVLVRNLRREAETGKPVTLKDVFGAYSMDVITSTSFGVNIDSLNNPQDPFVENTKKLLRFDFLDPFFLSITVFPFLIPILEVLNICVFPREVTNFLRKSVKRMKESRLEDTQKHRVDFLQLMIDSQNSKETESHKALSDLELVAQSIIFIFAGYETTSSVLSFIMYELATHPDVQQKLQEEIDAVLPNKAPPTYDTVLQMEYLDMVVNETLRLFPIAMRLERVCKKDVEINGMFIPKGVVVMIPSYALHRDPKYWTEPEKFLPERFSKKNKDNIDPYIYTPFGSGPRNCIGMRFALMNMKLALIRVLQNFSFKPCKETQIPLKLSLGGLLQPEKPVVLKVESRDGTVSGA

For `CC(C)Oc1cccc(C(=O)Nc2ccccc2N2CCOCC2)c1`, which EC50 [1] is on record?
The EC50 was > 50 µM (not active).

Which AC50 (Cytochrome P450 3A4) does the source give for `CCCCCCCC#Cc1ccccc1C(NC(=O)OC)C(C(=O)OC)C(=O)OC` (configuration not stated) here?
The AC50 was 3.16 µM (inconclusive).

And the AC50 (Cytochrome P450 2C9)?
Its AC50 is 7.94 µM (inconclusive).

For `Cc1ccc(-n2ncc(Cl)c(Oc3ccccc3)c2=O)cc1`, which IC50 [2] is on record?
Its IC50 is 13.7 µM (inactive).

What does the source list for `N#C/C(=N\Nc1ccc(Cl)cc1)C(=O)c1ccccc1`?
EC50 (HEK293): 7.25 µM (active); AC50 [3]: 39.2 µM (active); IC50 [4]: > 64 µM (inactive); EC50 [5]: 9.92 µM (active); AC50 [6]: 24.5 µM (active); AC50 (INS1): 3.07 µM (active); EC50 [7]: 9.38 µM (active); AC50 [8]: 42 µM (active)
